# What was measured:
# skin fibroblasts = settings: SR reconstituted while eliminating individual supplements; cited from earlier work
# [1] = test system: Mouse embryonic skin fibroblast (MEF) cells; assay: Conversion (reprogramming) of MEF cells into stem-like cells in defined medium; format: cell-based
# Protocol: MEF medium: DMEM (Invitrogen 11965-092) supplemented with 10% FBS (16000-044), 100 U/mL penicillin streptomycin (15140-122). Defined medium (Modified/Supplemented SR medium): 400 ml DMEM/F12 (Invitrogen 11330-032), 5 ml non-Essential Amino Acids (Invitrogen 11140-050), 2.5 ml L-Glutamine (Invitrogen 25030-018), 0.1 mM β-mercaptoethanol (Sigma 7522, add 3.5 μl) and 100 ml Knockout Serum Replacer (Invitrogen 10828-028). 4 ng/mL bFGF (13256-029), 1000/ml unit of ESGRO™ (Lif) (Chemicon Cat #ESG1107). For each experiment, the necessary amount of defined medium was aliquoted, and then freshly prepared bFGF and Lif were added to the medium each time just in advance of use. (Lif was used as a component of such medium for mouse cell culture only.) FGF stock was made by adding 1 ml of DMEM/F12 to a vial of 10 μg of FGF, with the 10 μg of FGF dissolved in the DMEM/F12 and then aliquoted into five vials. Stock vials were then stored at −20° C. For each 30 ml of defined medium, 12 μl of the stock bFGF was added. Arachidonic acid (AA) stock was made by dissolving 10 mg of AA (from porcine liver A3555-10M Sigma) in 1 ml of DMSO. Dissolved AA was then aliquoted into five vials, and then store at −20° C. ([…]). Before use in defined medium, the 10 mg/ml AA was diluted with 1×PBS at a 1:5 ratio. […]
# ES-like cells = settings: bFGF (4 ng/ml) and Lif added together to SR-containing medium; cited from earlier work
# [2] = test system: fibroblast growth factor receptor 3 (FGFR3); settings: thapsigargin 1 μg/ml in SR-containing medium; cited from earlier work
# skin fibroblast cells = settings: thapsigargin 1 μg/ml in SR-containing medium; cited from earlier work
compound,measurement,setting,value
"lipid-rich BSA: lipid-rich BSA (AlbuMax I, Invitrogen), component of serum replacement","role of SR component in reprogramming somatic cells (e.g., fibroblasts) into stem-like cells",skin fibroblasts,critical components
bFGF: basic fibroblast growth factor,efficient reprogramming of MEF cells to stem-like cells,"[1]; freshly prepared, bFGF 4 ng/mL and Lif 1000/ml unit added to defined medium immediately prior to every conversion or passage",important to ensuring efficient reprogramming
same,differentiation of the ES-like cells,ES-like cells,preventing differentiation
same,division of the ES-like cells,ES-like cells,promote division
C/C=C(/C)C(=O)O[C@H]1C(C)=C2[C@H]([C@@H]1OC(=O)CCCCCCC)[C@@](C)(OC(C)=O)C[C@H](OC(=O)CCC)[C@@]1(O)[C@H]2OC(=O)[C@@]1(C)O [Thapsigargin],up-regulated expression of FGFR3,[2],prevented
same,conversion of skin fibroblast cells into stem cell-like cells,skin fibroblast cells,prevented
"CCCCC/C=C\C/C=C\C/C=C\C/C=C\CCCC(=O)O [arachidonic acid, all-cis 5,8,11,14-eicosatetraenoic acid]",conversion efficiency of somatic cells,"[1]; arachidonic acid 2 mg/L added to defined medium, in isolation or together with pluronic F68",increase the conversion efficiency
same,"role of SR component in reprogramming somatic cells (e.g., fibroblasts) into stem-like cells",skin fibroblasts,critical components

# From US20100209404A1, “ENHANCED METHOD FOR PRODUCING STEM-LIKE CELLS FROM SOMATIC CELLS” (UNIVERSITY OF DAYTON, priority 2009, published 2010)
